From ChEMBL document CHEMBL4342480, “Design of Dual Inhibitors of Soluble Epoxide Hydrolase and LTA4 Hydrolase” (ACS Med Chem Lett, 2020)

Tests used:
[1] = target: T1, Leukotriene A-4 hydrolase (Homo sapiens, UniProt P09960); experiment: Inhibition of (His)6 tagged human recombinant LTA4H expressed in Escherichia coli BL21(DE3) using non-fluorescent L-arginine-7-amino-4-methylcoumarine as substrate preincubated for 30 mins followed by substrate addition and measured for 30 mins by fluorescence based assay
T1 sequence (P09960 whole entry): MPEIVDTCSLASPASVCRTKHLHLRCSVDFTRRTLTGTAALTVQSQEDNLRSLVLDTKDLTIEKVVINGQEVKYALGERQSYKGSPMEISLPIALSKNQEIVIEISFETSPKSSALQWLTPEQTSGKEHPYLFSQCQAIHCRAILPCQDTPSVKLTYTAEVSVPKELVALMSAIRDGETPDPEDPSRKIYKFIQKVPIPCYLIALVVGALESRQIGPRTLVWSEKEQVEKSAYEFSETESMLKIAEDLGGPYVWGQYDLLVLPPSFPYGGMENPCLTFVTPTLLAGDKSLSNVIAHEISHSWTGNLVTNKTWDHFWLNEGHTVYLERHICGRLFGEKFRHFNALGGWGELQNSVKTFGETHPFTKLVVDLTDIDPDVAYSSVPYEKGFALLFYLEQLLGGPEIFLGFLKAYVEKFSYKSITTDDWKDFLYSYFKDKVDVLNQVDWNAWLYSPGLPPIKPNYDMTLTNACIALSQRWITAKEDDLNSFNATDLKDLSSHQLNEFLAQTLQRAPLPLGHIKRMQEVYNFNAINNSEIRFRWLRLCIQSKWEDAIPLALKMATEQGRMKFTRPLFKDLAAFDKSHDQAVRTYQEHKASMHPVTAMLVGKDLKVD

Macrophage [2] = experiment: Antiinflammatory activity in Escherichia coli O6:K2:H1-induced human M1 macrophage assessed as change in 4-HDHA level at 1 uM preincubated for 10 mins followed by Escherichia coli O6:K2:H1-stimulation and measured after 180 mins by UPLC-MS/MS analysis relative to control; type: functional
Macrophage [3] = experiment: Antiinflammatory activity in Escherichia coli O6:K2:H1-induced human M1 macrophage assessed as change in PGD2 level at 1 uM preincubated for 10 mins followed by Escherichia coli O6:K2:H1-stimulation and measured after 180 mins by UPLC-MS/MS analysis relative to control; type: functional
Macrophage [4] = experiment: Antiinflammatory activity in Escherichia coli O6:K2:H1-induced human M1 macrophage assessed as change in LTB4 level at 1 uM preincubated for 10 mins followed by Escherichia coli O6:K2:H1-stimulation and measured after 180 mins by UPLC-MS/MS analysis relative to control; type: functional
Macrophage [5] = experiment: Antiinflammatory activity in Escherichia coli O6:K2:H1-induced human M1 macrophage assessed as change in 14-HDHA level at 10 uM preincubated for 10 mins followed by Escherichia coli O6:K2:H1-stimulation and measured after 180 mins by UPLC-MS/MS analysis relative to control; type: functional
Macrophage [6] = experiment: Antiinflammatory activity in Escherichia coli O6:K2:H1-induced human M1 macrophage assessed as change in 12-HETE level at 10 uM preincubated for 10 mins followed by Escherichia coli O6:K2:H1-stimulation and measured after 180 mins by UPLC-MS/MS analysis relative to control; type: functional
Macrophage [7] = experiment: Antiinflammatory activity in Escherichia coli O6:K2:H1-induced human M1 macrophage assessed as change in […] level at 10 uM preincubated for 10 mins followed by Escherichia coli O6:K2:H1-stimulation and measured after 180 mins by UPLC-MS/MS analysis relative to control; type: functional
Macrophage [8] = experiment: Antiinflammatory activity in Escherichia coli O6:K2:H1-induced human M1 macrophage assessed as change in 5-HETE level at 10 uM preincubated for 10 mins followed by Escherichia coli O6:K2:H1-stimulation and measured after 180 mins by UPLC-MS/MS analysis relative to control; type: functional
Macrophage [9] = experiment: Antiinflammatory activity in Escherichia coli O6:K2:H1-induced human M1 macrophage assessed as change in 5-HEPE level at 10 uM preincubated for 10 mins followed by Escherichia coli O6:K2:H1-stimulation and measured after 180 mins by UPLC-MS/MS analysis relative to control; type: functional
Macrophage [10] = experiment: Antiinflammatory activity in Escherichia coli O6:K2:H1-induced human M1 macrophage assessed as change in total LTB4 level at 10 uM preincubated for 10 mins followed by Escherichia coli O6:K2:H1-stimulation and measured after 180 mins by UPLC-MS/MS analysis relative to control; type: functional
Macrophage [11] = experiment: Antiinflammatory activity in Escherichia coli O6:K2:H1-induced human M2 macrophage assessed as change in 12-HEPE level at 1 uM preincubated for 10 mins followed by Escherichia coli O6:K2:H1-stimulation and measured after 180 mins by UPLC-MS/MS analysis relative to control; type: functional
Macrophage [12] = experiment: Antiinflammatory activity in Escherichia coli O6:K2:H1-induced human M2 macrophage assessed as change in 7-HDHA level at 1 uM preincubated for 10 mins followed by Escherichia coli O6:K2:H1-stimulation and measured after 180 mins by UPLC-MS/MS analysis relative to control; type: functional
Macrophage [13] = experiment: Antiinflammatory activity in Escherichia coli O6:K2:H1-induced human M2 macrophage assessed as change in 5-HETE level at 1 uM preincubated for 10 mins followed by Escherichia coli O6:K2:H1-stimulation and measured after 180 mins by UPLC-MS/MS analysis relative to control; type: functional
Macrophage [14] = experiment: Antiinflammatory activity in Escherichia coli O6:K2:H1-induced human M2 macrophage assessed as change in 5-HEPE level at 1 uM preincubated for 10 mins followed by Escherichia coli O6:K2:H1-stimulation and measured after 180 mins by UPLC-MS/MS analysis relative to control; type: functional
Macrophage [15] = experiment: Antiinflammatory activity in Escherichia coli O6:K2:H1-induced human M2 macrophage assessed as change in LTB4 level at 1 uM preincubated for 10 mins followed by Escherichia coli O6:K2:H1-stimulation and measured after 180 mins by UPLC-MS/MS analysis relative to control; type: functional
Macrophage [16] = experiment: Antiinflammatory activity in Escherichia coli O6:K2:H1-induced human M2 macrophage assessed as change in 15-HEPE level at 10 uM preincubated for 10 mins followed by Escherichia coli O6:K2:H1-stimulation and measured after 180 mins by UPLC-MS/MS analysis relative to control; type: functional
Macrophage [17] = experiment: Antiinflammatory activity in Escherichia coli O6:K2:H1-induced human M2 macrophage assessed as change in 14-HDHA level at 10 uM preincubated for 10 mins followed by Escherichia coli O6:K2:H1-stimulation and measured after 180 mins by UPLC-MS/MS analysis relative to control; type: functional
Macrophage [18] = experiment: Antiinflammatory activity in Escherichia coli O6:K2:H1-induced human M2 macrophage assessed as change in 5-HEPE level at 10 uM preincubated for 10 mins followed by Escherichia coli O6:K2:H1-stimulation and measured after 180 mins by UPLC-MS/MS analysis relative to control; type: functional
Macrophage [19] = experiment: Antiinflammatory activity in Escherichia coli O6:K2:H1-induced human M2 macrophage assessed as change in total LTB4 level at 10 uM preincubated for 10 mins followed by Escherichia coli O6:K2:H1-stimulation and measured after 180 mins by UPLC-MS/MS analysis relative to control; type: functional

`O=C(Cc1ccc(Oc2nc3ccccc3s2)cc1F)NCCc1ccc(F)cc1` was tested, and the IC50 [1] was 200 nM, the Activity (Macrophage [2]) was 88% and the Activity (Macrophage [3]) was 127%. For the same compound, the Activity (Macrophage [4]) was 181%, the Activity (Macrophage [5]) was 114% and the Activity (Macrophage [6]) was 131%. For the same compound, the Activity (Macrophage [7]) was 82%, the Activity (Macrophage [8]) was 42% and the Activity (Macrophage [9]) was 65%. For the same compound, the Activity (Macrophage [10]) was 28%, the Activity (Macrophage [11]) was 78% and the Activity (Macrophage [12]) was 94%. For the same compound, the Activity (Macrophage [13]) was 68%, the Activity (Macrophage [14]) was 93% and the Activity (Macrophage [15]) was 72%. The Activity (Macrophage [16]) was 120%, the Activity (Macrophage [17]) was 106% and the Activity (Macrophage [18]) was 97%. It also gave an Activity (Macrophage [19]) of 72%.
